# Measurements taken from paper PMC8050276, “Estradiol analogs attenuate autophagy, cell migration and invasion by direct and selective inhibition of TRPML1, independent of estrogen receptors” (Scientific Reports, 2021).
# Legend:
# [1] = molecular target: T1, hTRPML1L15/16A, L577/578A (Homo sapiens, UniProt Q9GZU1, L15A/L16A); assay: Whole-cell patch-clamp, tetracycline-inducible HEK293 hTRPML1L15/16A, L577/578A; type: cell-based; conditions: 30 µM ML-SA1, pH 4.6; read-out: TRPML1 IC50, whole-cell patch-clamp
# T1 construct: host or cells: HEK293, FLP-in-Tet-On, tetracycline-induced
# Experimental: (§1) For whole-cell patch-clamp experiments tetracycline-inducible hTRPML1L15/16A, L577/578A, hTRPML2 and TRPML3 HEK293 cell lines were used, generated by ICAGEN Inc. using the FLP-in-Tet-On system. Experiments were performed as described previously[20],[42]. In brief, cells were cultured on coverslips (Fisherbrand, Fisher Scientific) in complete DMEM medium with 10% FBS (Thermo Fisher). HEK293 cells expressing the desired channel protein were patch-clamped after overnight induction with tetracycline (1 µg/mL). […] The pipette solution contained (mM) 122 Cs‐methanosulfonate, 4 NaCl, 10 EGTA, 2 Na-ATP, 2 MgCl2 and 20 HEPES, pH 7.2 (with CsOH). The standard bath solution contained (mM) 153 NaCl, 5 KCl, 2 CaCl2, 1 MgCl2, 20 HEPES and 10 Glucose (pH 7.4 with NaOH). The low pH bath solution contained (mM) 150 Na-Gluconate, 5 KCl, 2 CaCl2, 1 MgCl2, 10 glucose, 10 HEPES and 10 MES (pH 4.6). Whole‐cell currents were recorded using a Multiclamp 700B amplifier (Molecular Devices) with low‐pass filtering at 3 kHz. The currents were digitized at a sampling frequency of 10 kHz using BNC-2110 and PCI-6221 with NI-DAQmx (National Instruments) and stored directly to a hard drive. Current recording was done with WinWCP5.2.7 (University of Strathclyde, UK) software, and analysis was done with the help of a customized Igor pro program (WaveMetrics).
# [2] = molecular target: T2, hTRPML3 (Homo sapiens, UniProt Q8TDD5); assay: Whole-cell patch-clamp, tetracycline-inducible HEK293 hTRPML3; type: cell-based; conditions: 30 µM ML-SA1, pH 7.4
# T2 construct: host or cells: HEK293, FLP-in-Tet-On, tetracycline-induced
# T2 sequence (Q8TDD5 1-553): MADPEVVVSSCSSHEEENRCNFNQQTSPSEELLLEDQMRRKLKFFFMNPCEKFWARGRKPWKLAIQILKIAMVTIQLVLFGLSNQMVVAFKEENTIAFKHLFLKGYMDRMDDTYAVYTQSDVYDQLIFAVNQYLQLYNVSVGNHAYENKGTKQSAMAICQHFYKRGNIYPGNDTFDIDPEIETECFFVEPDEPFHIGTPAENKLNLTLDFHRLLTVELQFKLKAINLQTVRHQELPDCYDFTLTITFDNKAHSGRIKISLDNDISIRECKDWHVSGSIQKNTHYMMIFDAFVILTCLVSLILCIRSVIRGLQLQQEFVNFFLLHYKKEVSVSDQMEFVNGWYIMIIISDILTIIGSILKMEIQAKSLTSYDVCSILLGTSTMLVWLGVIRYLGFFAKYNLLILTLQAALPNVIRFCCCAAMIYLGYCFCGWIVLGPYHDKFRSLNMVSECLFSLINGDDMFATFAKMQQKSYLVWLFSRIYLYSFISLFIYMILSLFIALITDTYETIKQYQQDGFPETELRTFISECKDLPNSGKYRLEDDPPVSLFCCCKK
# Experimental: as §1
# [3] = system: MDA-MB-231 cells; assay: Invasion assay, Matrigel-coated transwell chambers; type: cell-based, human; conditions: various concentrations, 4 h and o/n
# Experimental: For invasion measurements transwell chambers in 24-well permeable support plates (Corning, #3421) were coated with Corning Matrigel basement membrane matrix (Corning, #354234) for 1.5 h. A total of 4 × 104 MDA-MB-231 WT and TRPML1 KO cells were seeded on top of the chambers in serum-free medium, and direct stimulation with EDME was performed. The lower compartment contained the chemotactic gradient, medium with 10% FBS. Cells were allowed to migrate for 4 h and o/n, and were then fixed and stained with crystal violet containing methanol. Non-invaded cells were removed with Q-tips and pictures were taken of the bottom side of the membrane using an inverted microscope (Olympus CKX41) and an Olympus SC50 camera (Olympus). The number of invaded cells was quantified using ImageJ 1.52a software.
# T1 sequence (Q9GZU1 with tags, fused parts or gaps L15A/L16A): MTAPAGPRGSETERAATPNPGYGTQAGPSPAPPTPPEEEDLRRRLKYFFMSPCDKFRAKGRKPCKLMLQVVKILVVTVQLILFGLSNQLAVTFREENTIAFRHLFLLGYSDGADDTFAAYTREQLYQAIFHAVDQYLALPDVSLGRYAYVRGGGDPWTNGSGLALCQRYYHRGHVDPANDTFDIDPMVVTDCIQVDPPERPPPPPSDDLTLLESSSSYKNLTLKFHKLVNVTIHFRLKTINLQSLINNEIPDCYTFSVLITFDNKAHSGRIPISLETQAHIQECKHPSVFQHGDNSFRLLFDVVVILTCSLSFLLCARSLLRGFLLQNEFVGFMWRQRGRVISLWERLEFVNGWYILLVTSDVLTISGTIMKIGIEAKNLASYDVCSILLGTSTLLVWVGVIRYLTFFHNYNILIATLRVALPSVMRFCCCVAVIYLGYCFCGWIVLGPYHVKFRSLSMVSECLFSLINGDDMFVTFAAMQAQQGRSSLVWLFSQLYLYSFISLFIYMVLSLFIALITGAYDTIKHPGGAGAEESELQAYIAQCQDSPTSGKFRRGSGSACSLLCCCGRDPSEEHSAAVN
smiles,measurement,setting,value
"COc1ccc2c(c1)CC[C@@H]1[C@@H]2CC[C@]2(C)[C@@H](O)CC[C@@H]12 [EDME, 17β-estradiol methyl ether]",IC50,[1],220 nM
same,"block of TRPML3, whole-cell patch-clamp",[2],no block
same,invasion of MDA-MB-231 cells,[3],significantly reduced
